# Test system: L5178Y TK^±
# Test: Mouse lymphoma screening study, mutation assay without activation (protocol 431ICH1 edition 3)
# Assay type: cell-based
# Protocol: In order to determine mutagenic activity for cyanoacrylate compositions containing hydroquinone, a mouse lymphoma screening study was conducted according to methods known in the art. The assay protocol used was 431ICH1 edition 3 (L5178Y TK^±) and was conducted by Covance, Inc. The amount of radical stabilizer in each of the cyanoacrylate compositions was varied. The selective agent was 3.0 μg/ml 5-trifluorothymidine (TFT).
structure (smiles),measurement,setting,value
"Oc1ccc(O)cc1 [HQ in saline, hydroquinone]",mutagenic activity,"result in words, mutagenic activity defined as 124.1×10E-6 units",does not exhibit mutagenicity
same,Cumulative RSG,"without activation, Relative to Vehicle Control (%)",2.0%
same,Daily Cell Counts Day 2,"without activation, footnote g = not subcultured","0.9^g Cell/ML, 10E5 units"
same,Daily Cell Counts Day 1,"without activation, selective agent 3.0 μg/ml TFT","0.5 Cell/ML, 10E5 units"

# Source: patent publication US20070078207A1, “Stabilizer cyanoacrylate formulations” (priority 2005, published 2007)
